Tested on: sarcosine oxidase
Test: Influence of metal ions (metal chloride salts) on sarcosine oxidase activity
Assay type: biochemical
Conditions: sarcosine oxidase activity with metal chloride salt, final concentration 2 mM, None = 100
Procedure: As shown in the following Table 1, activity of the sarcosine oxidase was greatly influenced by metal ions. Since metal ions were inevitably contained in the sample, EDTA was added at 0.01 to 0.02 g/dL to chelate the metal ions and to prevent activity of the sarcosine oxidase from decreasing due to the metal ions. In this case, when an amount of EDTA added was small, the metal ions were not sufficiently removed. […] In the present example, EDTA4NA was used. However, another substance that can chelate the metal ions could be used. Then, AHMT serving as a chromogen was dissolved at 20 to 50 mM. In this case, when an amount of the reagent added was small, there was no difference in color development between specimens of an intermediate concentration and a high concentration. On the other hand, when an amount of the reagent added was large, discoloration was caused in a natural state, which caused a change in a product or a false positive result.
As shown in the following Table 2, activity of the sarcosine oxidase is greatly influenced by metal ions. When an excessive amount of metal ions was contained in the sample, EDTA was added at 0.01 to 0.02 g/dL in order to chelate and remove the metal ions and prevent activity of the sarcosine oxidase from decreasing due to the metal ions. That is, EDTA serves as a metal adsorber and facilitates activation of the enzymes. In the present example, EDTA4NA was used. However, another substance that can chelate the metal ions could be used. When an amount of EDTA added was small, the metal ions were not sufficiently removed.

SMILES	Relative activity (%) (Table 1 (first example))	Relative activity (%) (Table 2 (second example))
[Cl-].[Cl-].[Co+2] [Co^2+]	52%	52%
[Cl][Mn][Cl] [Mn^2+]	63%	63%
[Cl][Cd][Cl] [Cd^2+]	7%	7%
[Cl][Fe][Cl] [Fe^2+]	66%	66%
[Cl][Ni][Cl] [Ni^2+]	76%	76%
[Cl][Hg][Cl] [Hg^2+]	0%	0%
[Cl][Cu][Cl] [Cu^2+]	0%	0%
[Cl-].[Cl-].[Zn+2] [Zn^2+]	7%	7%

Reference: patent US20160222432A1, “TEST STRIP USING FORMALDEHYDE OR PEROXIDE, FROM AMONG SARCOSINE METABOLITES, FOR DIAGNOSING PROSTATE CANCER, AND METHOD FOR DIAGNOSING PROSTATE CANCER USING SAME” (CSQUARE CO., LTD, priority 2013, published 2016)
